PubChem BioAssay (NCI)
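The compound was tested at five concentrations on cells cultured in 96-well plates, with a 48-hour exposure period. TGI is the concentration that stops growth completely.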

Columns and labels:
Assay in all cases: NCI anticancer screen, dose series, 48 h
MDA-MB-435 = test system: MDA-MB-435
NCI-H522 lung = test system: NCI-H522 lung
UACC-62 melanoma = test system: UACC-62 melanoma
A549 NSCLC = test system: A549 NSCLC
EKVX NSCLC = test system: EKVX NSCLC
SK-OV-3 ovarian = test system: SK-OV-3 ovarian
SNB-75 CNS = test system: SNB-75 CNS
T-47D breast = test system: T-47D breast
SNB-19 CNS = test system: SNB-19 CNS
TK-10 renal = test system: TK-10 renal
OVCAR-3 ovarian = test system: OVCAR-3 ovarian
SF-539 CNS = test system: SF-539 CNS
CCRF-CEM leukemia = test system: CCRF-CEM leukemia
U251 CNS = test system: U251 CNS
UO-31 renal = test system: UO-31 renal
KM12 colon = test system: KM12 colon
OVCAR-4 ovarian = test system: OVCAR-4 ovarian
NCI-H460 lung = test system: NCI-H460 lung
HCT-15 colon = test system: HCT-15 colon
K-562 leukemia = test system: K-562 leukemia
786-0 renal = test system: 786-0 renal
HCT-116 colon = test system: HCT-116 colon
HS 578T breast = test system: HS 578T breast
COLO 205 colon = test system: COLO 205 colon
MDA-MB-231 breast = test system: MDA-MB-231 breast
SF-295 CNS = test system: SF-295 CNS
LOX IMVI melanoma = test system: LOX IMVI melanoma
PC-3 prostate = test system: PC-3 prostate
HL-60(TB) leukemia = test system: HL-60(TB) leukemia
NCI-H226 lung = test system: NCI-H226 lung
ACHN renal = test system: ACHN renal
SW-620 colon = test system: SW-620 colon
HOP-62 NSCLC = test system: HOP-62 NSCLC
SR leukemia = test system: SR leukemia
HCC-2998 colon = test system: HCC-2998 colon
SN12C renal = test system: SN12C renal
HOP-92 NSCLC = test system: HOP-92 NSCLC
UACC-257 melanoma = test system: UACC-257 melanoma
SK-MEL-5 melanoma = test system: SK-MEL-5 melanoma
NCI-H23 lung = test system: NCI-H23 lung
NCI/ADR-RES ovarian = test system: NCI/ADR-RES ovarian
MALME-3M melanoma = test system: MALME-3M melanoma
CAKI-1 renal = test system: CAKI-1 renal
M14 melanoma = test system: M14 melanoma
BT-549 breast = test system: BT-549 breast
MDA-N = test system: MDA-N
SK-MEL-28 melanoma = test system: SK-MEL-28 melanoma
MCF7 breast = test system: MCF7 breast
RXF 393 renal = test system: RXF 393 renal
MOLT-4 leukemia = test system: MOLT-4 leukemia
SF-268 CNS = test system: SF-268 CNS
OVCAR-5 ovarian = test system: OVCAR-5 ovarian
RPMI-8226 leukemia = test system: RPMI-8226 leukemia
HT29 colon = test system: HT29 colon
DU-145 prostate = test system: DU-145 prostate
OVCAR-8 ovarian = test system: OVCAR-8 ovarian
IGROV1 ovarian = test system: IGROV1 ovarian
SK-MEL-2 melanoma = test system: SK-MEL-2 melanoma

COc1cc(C)cc(C(=O)OCc2ccccc2)c1C1=C(Cl)C(=O)C(Cl)=CC1=O
TGI (MDA-MB-435): > 10 µM | TGI (NCI-H522 lung): 3.69 µM | TGI (UACC-62 melanoma): > 10 µM | TGI (A549 NSCLC): > 10 µM | TGI (EKVX NSCLC): > 10 µM | TGI (SK-OV-3 ovarian): > 10 µM | TGI (SNB-75 CNS): > 10 µM | TGI (T-47D breast): > 10 µM | TGI (SNB-19 CNS): > 10 µM | TGI (TK-10 renal): > 10 µM | TGI (OVCAR-3 ovarian): > 10 µM | TGI (SF-539 CNS): > 10 µM | TGI (CCRF-CEM leukemia): 4.76 µM | TGI (U251 CNS): > 10 µM | TGI (UO-31 renal): > 10 µM | TGI (KM12 colon): > 10 µM | TGI (OVCAR-4 ovarian): > 9 µM | TGI (NCI-H460 lung): > 10 µM | TGI (HCT-15 colon): > 10 µM | TGI (K-562 leukemia): 5.37 µM | TGI (786-0 renal): > 10 µM | TGI (HCT-116 colon): > 10 µM | TGI (HS 578T breast): > 10 µM | TGI (COLO 205 colon): > 10 µM | TGI (MDA-MB-231 breast): > 10 µM | TGI (SF-295 CNS): > 10 µM | TGI (LOX IMVI melanoma): > 10 µM | TGI (PC-3 prostate): > 10 µM | TGI (HL-60(TB) leukemia): 2.55 µM | TGI (NCI-H226 lung): > 10 µM | TGI (ACHN renal): > 10 µM | TGI (SW-620 colon): > 10 µM | TGI (HOP-62 NSCLC): > 10 µM | TGI (SR leukemia): > 7.85 µM | TGI (HCC-2998 colon): > 10 µM | TGI (SN12C renal): > 10 µM | TGI (HOP-92 NSCLC): 9.92 µM | TGI (UACC-257 melanoma): > 10 µM | TGI (SK-MEL-5 melanoma): > 10 µM | TGI (NCI-H23 lung): > 10 µM | TGI (NCI/ADR-RES ovarian): > 10 µM | TGI (MALME-3M melanoma): > 10 µM | TGI (CAKI-1 renal): > 10 µM | TGI (M14 melanoma): > 10 µM | TGI (BT-549 breast): > 10 µM | TGI (MDA-N): > 10 µM | TGI (SK-MEL-28 melanoma): > 10 µM | TGI (MCF7 breast): > 10 µM | TGI (RXF 393 renal): > 10 µM | TGI (MOLT-4 leukemia): 5.29 µM | TGI (SF-268 CNS): > 10 µM | TGI (OVCAR-5 ovarian): > 10 µM | TGI (RPMI-8226 leukemia): > 10 µM | TGI (HT29 colon): > 10 µM | TGI (DU-145 prostate): > 10 µM | TGI (OVCAR-8 ovarian): > 10 µM | TGI (IGROV1 ovarian): > 10 µM | TGI (SK-MEL-2 melanoma): > 10 µM
